Test results published in ChEMBL document CHEMBL1132922, “Corticotropin releasing factor (CRF) receptor modulators: progress and opportunities for new therapeutic agents” (J Med Chem, 2000).

How the values were obtained:
[1] = biological target: T1, Corticotropin releasing factor receptor (Rattus norvegicus, UniProt P47866+P35353); assay: Compound was tested for the binding affinity to rat Corticotropin releasing factor (rCRF) receptors; type: protein assay
[2] = Compound was tested for the binding affinity to mouse Corticotropin releasing factor receptor 2 beta
[3] = biological target: T1, Corticotropin releasing factor receptor; assay: Compound was tested for the binding affinity to rat ccorticotropin releasing factor receptor; type: protein assay
Rattus norvegicus [4] = species: Rattus norvegicus; assay: Percent control value is reported, after studying ability to inhibit CRF-stimulated release of ACTH in rats; type: functional; parameters: scale not given: the % may be the effect or the level left
[5] = Pharmacokinetic profile (5 mg/kg) in rat for Oral bioavailability; type: ADME, organism-based; conditions: in vivo
[6] = Half life period when administered 1 mg/kg intravenously in rat; type: ADME, organism-based; parameters: dose 1 mg/kg, route intravenous; conditions: in vivo, iv
[7] = Plasma administered 1 mg/kg intravenously in rat.; type: ADME, organism-based; parameters: dose 1 mg/kg, route intravenous; conditions: iv
Rattus norvegicus [8] = assay: Dose (ip) that completely reverses the r/h-CRF-enhanced acoustic startle of rats; type: functional
Rattus norvegicus [9] = species: Rattus norvegicus; assay: 50% inhibitory concentration to antagonize ACTH secretion; type: functional; conditions: read-out: ID50 (the source's name)
[10] = biological target: T2, Corticotropin-releasing factor receptor 2 (Homo sapiens, UniProt Q13324); assay: Compound was tested for the binding affinity to human corticotropin releasing factor receptor (hCRF2)
T2 sequence (Q13324 whole entry): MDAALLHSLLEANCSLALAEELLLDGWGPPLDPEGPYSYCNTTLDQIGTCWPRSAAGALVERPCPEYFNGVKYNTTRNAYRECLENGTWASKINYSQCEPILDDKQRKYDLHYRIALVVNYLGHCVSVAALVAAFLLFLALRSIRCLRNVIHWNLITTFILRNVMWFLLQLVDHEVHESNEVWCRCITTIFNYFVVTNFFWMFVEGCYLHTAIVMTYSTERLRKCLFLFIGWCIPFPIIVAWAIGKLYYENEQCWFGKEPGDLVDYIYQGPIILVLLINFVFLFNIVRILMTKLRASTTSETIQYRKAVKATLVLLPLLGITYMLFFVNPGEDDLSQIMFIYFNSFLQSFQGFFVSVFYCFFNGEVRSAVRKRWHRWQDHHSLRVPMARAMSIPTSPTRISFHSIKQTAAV

[11] = biological target: T3, Corticotropin-releasing factor receptor 1 (Homo sapiens, UniProt P34998); assay: Compound was tested for the binding affinity to human corticotropin releasing factor 1 (hCRF1) receptors.
T3 sequence (P34998 whole entry): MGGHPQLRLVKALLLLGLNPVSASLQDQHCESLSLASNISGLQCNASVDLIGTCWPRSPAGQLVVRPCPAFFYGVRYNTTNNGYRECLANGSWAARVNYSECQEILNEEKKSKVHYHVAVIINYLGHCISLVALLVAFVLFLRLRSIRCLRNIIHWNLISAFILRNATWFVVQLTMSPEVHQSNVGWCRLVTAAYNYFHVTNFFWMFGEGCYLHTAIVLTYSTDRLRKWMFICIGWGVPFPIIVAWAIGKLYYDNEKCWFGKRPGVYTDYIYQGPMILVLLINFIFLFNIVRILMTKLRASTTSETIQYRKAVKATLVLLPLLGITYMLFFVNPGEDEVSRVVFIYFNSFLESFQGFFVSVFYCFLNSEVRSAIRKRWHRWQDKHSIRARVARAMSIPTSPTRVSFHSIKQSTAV

[12] = biological target: T3, Corticotropin-releasing factor receptor 1; assay: Antagonist potency in hCRF1 stimulated adenylate cyclase assay; type: functional
[13] = Compound was tested for the max. conc. when administered perorally(po) 30 mg/kg; type: ADME, organism-based; parameters: dose 30 mg/kg, route oral; conditions: in vivo
[14] = Compound was tested for the max. conc. when administered intraperitoneally (ip) 30 mg/kg; type: ADME, organism-based; parameters: dose 30 mg/kg, route intraperitoneal; conditions: in vivo
[15] = Compound was tested for bioavailability when administered intraperitoneally; type: ADME, organism-based; conditions: eutheria, in vivo, ip
[16] = Compound was tested for bioavailability when administered perorally; type: ADME, organism-based; conditions: eutheria, in vivo, po
[17] = (§1) oral pharmacokinetic parameter, Half-life period was reported in rats; type: ADME, organism-based; conditions: rat, in vivo
[18] = oral pharmacokinetic parameter, Oral bioavailability was reported in dogs; type: ADME, organism-based, Canis lupus familiaris; conditions: dog, in vivo
[19] = oral pharmacokinetic parameter, Oral bioavailability was reported in rats; type: ADME, organism-based; conditions: rat, in vivo
[20] = oral pharmacokinetic parameter, Half-life period was reported in dogs; type: ADME, organism-based, Canis lupus familiaris; conditions: dog, in vivo
[21] = oral pharmacokinetic parameter, Maximum concentration was reported in dogs; type: ADME, organism-based, Canis lupus familiaris; parameters: route oral; conditions: dog, in vivo
[22] = as §1; type: ADME, organism-based; conditions: rat, in vivo; remark: listed apart in the source
[23] = biological target: T3, Corticotropin-releasing factor receptor 1; assay: Inhibition of corticotropin releasing factor receptor mediated increase in adenylate cyclase activity was evaluated
[24] = biological target: T3, Corticotropin-releasing factor receptor 1; assay: Compound was tested for the binding affinity to human corticotropin releasing factor receptor
[25] = biological target: T1, Corticotropin releasing factor receptor; assay: Effective concentration to inhibit CRF-mediated increase in adenylate cyclase; type: protein assay
[26] = biological target: T1, Corticotropin releasing factor receptor; assay: (§2) Compound was tested for the binding affinity to rat corticotropin releasing factor receptor; type: protein assay
[27] = biological target: T1, Corticotropin releasing factor receptor; assay: as §2; type: protein assay; remark: listed apart in the source
Rattus norvegicus [28] = species: Rattus norvegicus; assay: Effective concentration to inhibit adenocorticotropic hormone (ACTH) release from primary cultures of rat pituitary cells.; type: functional, cell-based; conditions: Pituitary gland cell
[29] = Oral bioavailability is reported, after administering 1 mg/kg (intravenously and orally ) to dogs; type: ADME, organism-based, Canis lupus familiaris; conditions: dog, in vivo
[30] = biological target: T3, Corticotropin-releasing factor receptor 1; assay: Inhibition of corticotropin releasing factor receptor mediated increase in cAMP level using HEK293 cells expressing h-CRF1 receptor; type: cell-based

With `Cc1cc(N2CCOCC2)c2ccn(-c3ccc(C(C)C)cc3Br)c2n1` the Ki [1] was 28 nM.
`CO[C@@]12C(COC(N)=O)C3=C(C(=O)C(C)=C(NCCc4ccco4)C3=O)N1CC1NC12` (stereo partly specified) gave a Ki [2] of 20 nM, a Ki [3] of 110 nM and a Control (Rattus norvegicus [4]) of 50%.
`CCN(c1nc(C)nc(N2CCOCC2)n1)c1c(Br)cc(OC)cc1OC.CS(=O)(=O)O` gave a bioavailability [5] of 20%.
With `COCCN(CCOC)c1nc(C)nc2c1nnn2-c1ccc(C(C)C)cc1Br` the half-life [6] was 7.6 h and the clearance [7] was 50 mL/min/kg.
`CCCCN(CC)c1nc(C)nc2c1c(C)cn2-c1c(C)cc(C)cc1C.Cl` gave a Dose (Rattus norvegicus [8]) of 17.8 mg/kg and an ED50 (Rattus norvegicus [9]) of 13 mg/kg.
In the case of `CCCN(CCC)c1cc(C)nc2c(-c3ccc(OC)cc3OC)c(C)nn12`, the Ki [10] is reported as over 10000 nM, the Ki [11] is reported as 2.8 nM and the EC50 [12] is reported as 142 nM.
`CCN(c1nc(C)cc(C)n1)c1c(Br)cc(OC)cc1OC` showed a Cmax [13] of 366 nM, a Cmax [14] of 1880 nM and a bioavailability [15] of 26%. The bioavailability [16] was 4%.
With `COCC(COC)Nc1nc(C)nc2c(-c3ccc(Cl)cc3Cl)c(C)nn12` the half-life [17] was 16.5 h, the bioavailability [18] was 50% and the F [19] was 36.7%. The half-life [20] was 33 h, the Cmax [21] was 240 nM and the half-life [22] was 16.5 h. The IC50 [23] was 82 nM and the Ki [24] was 1.8 nM.
`CCCN(CC1CC1)c1nc(C)nc(Nc2c(Cl)cc(Cl)cc2Cl)c1Cl` showed an EC50 [25] of 150 nM, a Ki [26] of over 10000 nM and a Ki [27] of 2 nM. The EC50 (Rattus norvegicus [28]) was 70 nM.
`COCC(COC)n1nnc2c(Nc3c(C)cc(C)cc3Cl)nc(C)cc21.CS(=O)(=O)O` gave a bioavailability [29] of 59%, a Ki [24] of 3.3 nM and an IC50 [30] of 75 nM.
